Experimental data from patent publication US7858796B2, “Chemical compounds” (Glaxo Group Limited, priority 2004, dated 2010).
pIC50: −log10 of the molar value.

Columns and labels:
[1] = molecular target: T1, Recombinant human IKKβ (residues 1-737) (Homo sapiens, UniProt O14920); assay: IKK2 Assay (TR-FRET); assay type: biochemical; details: IKK2 5 nM, GST-IκBα 25 nM, ATP 1 μM, 30 minutes at room temperature, read-out: pIC50 against IKK2 (converted)
T1 construct: Recombinant human IKKβ (residues 1-737); GST (C); made in house
T1 sequence (O14920 1-737): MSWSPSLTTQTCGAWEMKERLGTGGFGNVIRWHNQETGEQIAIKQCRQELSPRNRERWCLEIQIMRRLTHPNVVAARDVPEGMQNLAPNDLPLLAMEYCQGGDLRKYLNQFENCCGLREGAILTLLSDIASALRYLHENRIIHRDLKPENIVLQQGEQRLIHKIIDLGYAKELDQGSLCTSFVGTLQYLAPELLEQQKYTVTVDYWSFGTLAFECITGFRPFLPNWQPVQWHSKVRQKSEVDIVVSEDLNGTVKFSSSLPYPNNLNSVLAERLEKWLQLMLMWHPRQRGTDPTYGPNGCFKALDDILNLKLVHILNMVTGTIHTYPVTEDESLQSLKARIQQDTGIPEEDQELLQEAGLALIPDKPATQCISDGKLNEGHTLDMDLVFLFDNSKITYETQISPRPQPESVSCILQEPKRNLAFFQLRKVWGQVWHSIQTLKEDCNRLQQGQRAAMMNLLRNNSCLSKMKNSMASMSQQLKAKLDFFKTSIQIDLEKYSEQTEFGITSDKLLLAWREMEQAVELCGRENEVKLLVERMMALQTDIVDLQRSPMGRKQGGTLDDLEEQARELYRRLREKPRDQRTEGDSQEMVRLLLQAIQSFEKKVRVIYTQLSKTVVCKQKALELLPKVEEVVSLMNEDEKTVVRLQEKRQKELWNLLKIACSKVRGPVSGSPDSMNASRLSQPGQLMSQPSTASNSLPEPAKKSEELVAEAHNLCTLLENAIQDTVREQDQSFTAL
Protocol: Recombinant human IKKβ (residues 1-737) was expressed in baculovirus as a C-terminal GST-tagged fusion protein, and its activity was assessed using a time-resolved fluorescence resonance energy transfer (TR-FRET) assay. Briefly, IKK2 (5 nM final) diluted in assay buffer (50 mM HEPES, 10 mM MgCl2, 1 mM CHAPS pH 7.4 with 1 mM DTT and 0.01% w/v BSA) was added to wells containing various concentrations of compound or DMSO vehicle (3% final). The reaction was initiated by the addition of GST-IκBα substrate (25 nM final)/ATP (1 μM final), in a total volume of 30 μl. The reaction was incubated for 30 minutes at room temperature, then terminated by the addition of 15 μl of 50 mM EDTA. Detection reagent (15 μl) in buffer (100 mM HEPES pH 7.4, 150 mM NaCl and 0.1% w/v BSA) containing antiphosphoserine-IκBα-32/36 monoclonal antibody 12C2 (Cell Signalling Technology, Beverly Mass., USA) labelled with W-1024 europium chelate (Wallac OY, Turku, Finland), and an APC-labelled anti-GST antibody (Prozyme, San Leandro, Calif., USA) was added and the reaction was further incubated for 60 minutes at room temperature. The degree of phosphorylation of GST-IκBα was measured using a Packard Discovery plate reader (Perkin-Elmer Life Sciences, Pangbourne, UK) as a ratio of specific 665 nm energy transfer signal to reference europium 620 nm signal.

[2] = tested on: human monocyte stimulated cytokine production (TNF-α); assay: Monocyte Assay (LPS-stimulated TNF-α production); assay type: cell-based; details: human CD14+ monocytes, 200 ng/mL LPS, 24 hrs, TNF-α by ELISA
Protocol: Effect of IKK-β inhibition on human monocyte stimulated cytokine production was assessed as follows: Monocytes were isolated from heparinized whole blood by Ficoll gradient, followed by purification of CD14+ cells using MACS magnetic cell separation beads. Isolated monocytes were then adhered to 96-well culture plates at 1×10^6 cells/mL in RPMI 1640 10% FBS (JRH Biosciences, Lenexa Kans.) for 2 h. to further enrich the monocyte population. The media was then removed, cells washed once with RPMI 1640, and 0.125 mL RPMI 1640 10% FBS was added to the wells. Test compounds are added to the wells 30 minutes prior to stimulation with a final vehicle concentration of 0.1% DMSO. Monocytes were activated by the addition of 200 ng/mL endotoxin (LPS; E. coli serotype 026:B6) (Sigma, St. Louis, Mo.) and incubated for 24 hrs at 37 C. Cell-free supernates were analyzed by ELISA for TNF-α using Pharmingen matched pair Abs. Viability of the cells was determined by10% trypan blue exclusion.

## NC(=O)c1cc(-c2ccccc2)cc2c(C3CCN(S(=O)(=O)CCNCC4CCCCC4)CC3)c[nH]c12 [Example 38]
[1]
  IC50: ≤ 10 µM

## NC(=O)c1cc(-c2ccccc2)cc2c(C3CCN(S(=O)(=O)CCOCC4CCOC4)CC3)c[nH]c12 (stereo not shown) [Example 200]
[1]
  IC50: ≤ 10 µM
[2]
  pIC50: > 5.00

## COCCCS(=O)(=O)N1CCC(c2c[nH]c3c(C(N)=O)cc(-c4cccc(CNCCN5CCCCC5)c4)cc23)CC1 [Example 249]
[1]
  IC50: > 25.1 µM

## Cc1ncc(S(=O)(=O)N2CCC(c3c[nH]c4c(C(N)=O)cc(-c5ccccc5)cc34)CC2)n1C [Example 279, 3-{1-[(1,2-dimethyl-1H-imidazol-5-yl)sulfonyl]-4-piperidinyl}-5-phenyl-1H-indole-7-carboxamide]
[2]
  pIC50: > 5.00

## Cn1cnc(S(=O)(=O)N2CCC(c3c[nH]c4c(C(N)=O)cc(-c5ccsc5)cc34)CC2)c1 [Example 280, 3-{1-[(1-methyl-1H-imidazol-4-yl)sulfonyl]-4-piperidinyl}-5-(3-thienyl)-1H-indole-7-carboxamide]
[2]
  pIC50: > 5.00

## NC(=O)c1cc(-c2ccccc2)cc2c(C3CCN(S(=O)(=O)c4ccsc4)CC3)c[nH]c12 [Example 311, 5-phenyl-3-[1-(3-thienylsulfonyl)piperidin-4-yl]-1H-indole-7-carboxamide]
[2]
  pIC50: > 5.00
